Test results: ChEMBL document CHEMBL1697781, “Assessment of the health effects of chemicals in humans: II. Construction of an adverse effects database for QSAR modeling” (Curr Drug Discov Technol, 2004)

Tests used:
Settings in all cases: human; call rule not given here
[1] = tested on: Hepatotoxicity; assay: FDA HLAED, liver enzyme composite activity
[2] = tested on: Hepatotoxicity; assay: FDA HLAED, alkaline phosphatase increase
[3] = tested on: Hepatotoxicity; assay: FDA HLAED, serum glutamic oxaloacetic transaminase (SGOT) increase
[4] = tested on: Hepatotoxicity; assay: FDA HLAED, serum glutamic pyruvic transaminase (SGPT) increase
[5] = tested on: Hepatotoxicity; assay: FDA HLAED, lactate dehydrogenase (LDH) increase
[6] = tested on: Hepatotoxicity; assay: FDA HLAED, gamma-glutamyl transferase (GGT) increase
Throughout, for GGT Increase - Index Value: reference of the scale not given here.
Throughout, for LDH Increase - Index Value: reference of the scale not given here.

| Structure (SMILES) | Composite Activity - Active [1] | Composite Activity - Marginal [1] | Composite Activity - Score [1] | Alkaline Phosphatase Increase - Activity Score [2] | Alkaline Phosphatase Increase - Index Value [2] | Alkaline Phosphatase Increase - Number of Reports [2] | SGOT Increase - Activity Score [3] | SGOT Increase - Index Value [3] | SGOT Increase - Number of Reports [3] | SGPT Increase - Activity Score [4] | SGPT Increase - Index Value [4] | SGPT Increase - Number of Reports [4] | LDH Increase - Activity Score [5] | LDH Increase - Index Value [5] | LDH Increase - Number of Reports [5] | GGT Increase - Activity Score [6] | GGT Increase - Index Value [6] | GGT Increase - Number of Reports [6] |
| --- | --- | --- | --- | --- | --- | --- | --- | --- | --- | --- | --- | --- | --- | --- | --- | --- | --- | --- |
| CCN1CCN(C(=O)N[C@@H](C(=O)N[C@@H]2C(=O)N3C(C(=O)O)=C(CSc4nnnn4C)CS[C@H]23)c2ccc(O)cc2)C(=O)C1=O [CEFOPERAZONE] | 0 | 0 | Inactive | Inactive | 0 | < 4 | Inactive | 0.4 | >= 4 | Inactive | 0.2 | < 4 | Inactive | 0.1 | < 4 | Inactive | 0 | < 4 |
| CO/N=C(\C(=O)N[C@@H]1C(=O)N2C(C(=O)O)=C(COC(C)=O)CS[C@H]12)c1csc(N)n1 [CEFOTAXIME] | 1 | 0 | Inactive | Inactive | 0.3 | < 4 | Active | 4.7 | >= 4 | Inactive | 2 | < 4 | Inactive | 0 | < 4 | Inactive | 0 | < 4 |
| CO[C@@]1(NC(=O)C2SC(=C(C(N)=O)C(=O)O)S2)C(=O)N2C(C(=O)O)=C(CSc3nnnn3C)CS[C@@H]21 (stereo partly drawn) [CEFOTETAN] | 0 | 0 | Inactive | Inactive | 0.7 | < 4 | Inactive | 0 | < 4 | Inactive | 0 | < 4 | Inactive | 0 | < 4 | Inactive | 0 | < 4 |
| CO[C@@]1(NC(=O)Cc2cccs2)C(=O)N2C(C(=O)O)=C(COC(N)=O)CS[C@@H]21 [CEFOXITIN] | 0 | 0 | Inactive | Inactive | 0 | < 4 | Inactive | 0 | < 4 | Inactive | 0 | < 4 | Inactive | 0 | < 4 | Inactive | 0 | < 4 |
| COCC1=C(C(=O)OC(C)OC(=O)OC(C)C)N2C(=O)[C@@H](NC(=O)/C(=N\OC)c3csc(N)n3)[C@H]2SC1 (stereo partly drawn) [CEFPODOXIME PROXETIL] | 0 | 0 | Inactive | Inactive | 1 | >= 4 | Inactive | 1 | >= 4 | Inactive | 0.8 | >= 4 | Inactive | 0.2 | < 4 | Inactive | 0.5 | < 4 |
| COCC1=C(C(=O)O)N2C(=O)[C@@H](NC(=O)/C(=N\OC)c3csc(N)n3)[C@H]2SC1 [CEFPODOXIME] | 0 | 0 | Inactive | Inactive | 1 | >= 4 | Inactive | 1 | >= 4 | Inactive | 0.8 | >= 4 | Inactive | 0.2 | < 4 | Inactive | 0.5 | < 4 |
